Read-outs that look alike come from different tables or passages of the source.

Experiment in all cases: Glasshouse assay for herbicidal activity (pre- and post-emergence), percentage phytotoxicity
Holding throughout (type): in vivo

In one test the test system is Lolium perenne (LOLPE). Particulars: Lolium perenne. As to the method: (§1) Test—Glasshouse Assay for Herbicidal Activity
(§2) Seeds of a variety of monocotyledonous and dicotyledonous test plants are sown in standard soil in pots. The plants are cultivated for one day (for pre-emergence (PRE)) or for about 12 days (for post-emergence (POST)) under controlled conditions in a glasshouse (warm climate species at 24/18° C., cool climate species at 20/16° C., both at day/night; 16 hours light; 65% humidity).
(§3) The test plants are then grown on, in a glasshouse (greenhouse) under controlled conditions (warm climate species at 24/18° C., cool climate species at 20/16° C., both at day/night; 16 hours light; 65% humidity) and are watered twice daily. 15 days after application of the test herbicide (15 DAA) (for post-emergence), and 20 days after application of the test herbicide (20 DAA) (for pre-emergence), the test plants are evaluated visually, and an assessed percentage phytotoxicity score is given for each herbicidal application on each plant species (with 100%=total damage to plant; 0%=no damage to plant).
(§4) The plant species tested are as follows: Alopecurus myosuroides (ALOMY), Avena fatua (AVEFA), Lolium perenne (LOLPE), Echinochloa crus-galli (ECHCG).

The subject of test [1] is Echinochloa crus-galli (ECHCG). The following applies: Echinochloa crus-galli. The procedure:
as §1, §2, §3, §4

Test [2] has as its system Alopecurus myosuroides (ALOMY). Particulars: Alopecurus myosuroides. The procedure: as §1, §2, §3, §4
The next test concerns Avena fatua (AVEFA). The following applies: Avena fatua. The procedure: as §1, §2, §3, §4
The mark [3] stands for this setting: post-emergence, 360 h, POST-emergence, rate 250 g/ha, visual score 15 DAA (100%=total damage, 0%=no damage), read-out: Post-emergence herbicidal activity (percentage phytotoxicity) LOLPE POST.
Where [4] appears, read: pre-emergence, 480 h, PRE-emergence, rate 250 g/ha, visual score 20 DAA (100%=total damage, 0%=no damage), read-out: Pre-emergence herbicidal activity (percentage phytotoxicity) LOLPE PRE.
Setting [5] is: post-emergence, 360 h, POST-emergence, rate 250 g/ha, visual score 15 DAA (100%=total damage, 0%=no damage), read-out: Post-emergence herbicidal activity (percentage phytotoxicity) ECHCG POST.
Where [6] appears, read: pre-emergence, 480 h, PRE-emergence, rate 250 g/ha, visual score 20 DAA (100%=total damage, 0%=no damage), read-out: Pre-emergence herbicidal activity (percentage phytotoxicity) ECHCG PRE.
[7] abbreviates: post-emergence, 360 h, POST-emergence, rate 250 g/ha, visual score 15 DAA (100%=total damage, 0%=no damage), read-out: Post-emergence herbicidal activity (percentage phytotoxicity) ALOMY POST.
[8] abbreviates: pre-emergence, 480 h, PRE-emergence, rate 250 g/ha, visual score 20 DAA (100%=total damage, 0%=no damage), read-out: Pre-emergence herbicidal activity (percentage phytotoxicity) ALOMY PRE.
The mark [9] stands for this setting: post-emergence, 360 h, POST-emergence, rate 250 g/ha, visual score 15 DAA (100%=total damage, 0%=no damage), read-out: Post-emergence herbicidal activity (percentage phytotoxicity) AVEFA POST.
[10] abbreviates: pre-emergence, 480 h, PRE-emergence, rate 250 g/ha, visual score 20 DAA (100%=total damage, 0%=no damage), read-out: Pre-emergence herbicidal activity (percentage phytotoxicity) AVEFA PRE.
Where [11] appears, read: post-emergence, 360 h, Rate 250 g/ha, post-emergence, assessed visually 15 DAA, 100%=total damage, 0%=no damage, read-out: Post-emergence herbicidal activity (percentage phytotoxicity) LOLPE POST.
Setting [12] is: pre-emergence, 480 h, Rate 250 g/ha, pre-emergence, assessed visually 20 DAA, 100%=total damage, 0%=no damage, read-out: Pre-emergence herbicidal activity (percentage phytotoxicity) LOLPE PRE.
The mark [13] stands for this setting: post-emergence, 360 h, Rate 250 g/ha, post-emergence, assessed visually 15 DAA, 100%=total damage, 0%=no damage, read-out: Post-emergence herbicidal activity (percentage phytotoxicity) ECHCG POST.
Setting [14] is: pre-emergence, 480 h, Rate 250 g/ha, pre-emergence, assessed visually 20 DAA, 100%=total damage, 0%=no damage, read-out: Pre-emergence herbicidal activity (percentage phytotoxicity) ECHCG PRE.
Setting [15] is: post-emergence, 360 h, Rate 250 g/ha, post-emergence, assessed visually 15 DAA, 100%=total damage, 0%=no damage, read-out: Post-emergence herbicidal activity (percentage phytotoxicity) ALOMY POST.
The mark [16] stands for this setting: pre-emergence, 480 h, Rate 250 g/ha, pre-emergence, assessed visually 20 DAA, 100%=total damage, 0%=no damage, read-out: Pre-emergence herbicidal activity (percentage phytotoxicity) ALOMY PRE.
Setting [17] is: post-emergence, 360 h, Rate 250 g/ha, post-emergence, assessed visually 15 DAA, 100%=total damage, 0%=no damage, read-out: Post-emergence herbicidal activity (percentage phytotoxicity) AVEFA POST.
Setting [18] is: pre-emergence, 480 h, Rate 250 g/ha, pre-emergence, assessed visually 20 DAA, 100%=total damage, 0%=no damage, read-out: Pre-emergence herbicidal activity (percentage phytotoxicity) AVEFA PRE.
Setting [19] is: post-emergence, 360 h, 250 g/ha, post-emergence, 15 DAA, visual assessment (100%=total damage, 0%=no damage), read-out: Post-emergence herbicidal activity (percentage phytotoxicity) LOLPE POST.
Setting [20] is: pre-emergence, 480 h, 250 g/ha, pre-emergence, 20 DAA, visual assessment (100%=total damage, 0%=no damage), read-out: Pre-emergence herbicidal activity (percentage phytotoxicity) LOLPE PRE.
Where [21] appears, read: post-emergence, 360 h, 250 g/ha, post-emergence, 15 DAA, visual assessment (100%=total damage, 0%=no damage), read-out: Post-emergence herbicidal activity (percentage phytotoxicity) ECHCG POST.
Where [22] appears, read: pre-emergence, 480 h, 250 g/ha, pre-emergence, 20 DAA, visual assessment (100%=total damage, 0%=no damage), read-out: Pre-emergence herbicidal activity (percentage phytotoxicity) ECHCG PRE.
Where [23] appears, read: post-emergence, 360 h, 250 g/ha, post-emergence, 15 DAA, visual assessment (100%=total damage, 0%=no damage), read-out: Post-emergence herbicidal activity (percentage phytotoxicity) ALOMY POST.
Where [24] appears, read: pre-emergence, 480 h, 250 g/ha, pre-emergence, 20 DAA, visual assessment (100%=total damage, 0%=no damage), read-out: Pre-emergence herbicidal activity (percentage phytotoxicity) ALOMY PRE.
Setting [25] is: post-emergence, 360 h, 250 g/ha, post-emergence, 15 DAA, visual assessment (100%=total damage, 0%=no damage), read-out: Post-emergence herbicidal activity (percentage phytotoxicity) AVEFA POST.
Setting [26] is: pre-emergence, 480 h, 250 g/ha, pre-emergence, 20 DAA, visual assessment (100%=total damage, 0%=no damage), read-out: Pre-emergence herbicidal activity (percentage phytotoxicity) AVEFA PRE.

For the compound `Cc1cc(-c2ncc(F)cc2F)cc(C)c1C1C(=O)CC(CC(=O)NCc2ccccc2)C1=O` (stereo not shown) [Compound B181], the pest or weed control at 250 g/ha worked out at 100% in the test with Lolium perenne (LOLPE) (setting [3]); 100% in the test with Lolium perenne (LOLPE) (setting [4]); 100% in test [1] (setting [5]); 100% in test [1] (setting [6]); 100% in test [2] (setting [7]); 70% in test [2] (setting [8]). In addition, the pest or weed control at 250 g/ha is 100% with Avena fatua (AVEFA) (setting [9]) and 70% with Avena fatua (AVEFA) (setting [10]).

Regarding `CCc1cc(OCC(F)(F)F)cc(C)c1C1C(=O)CC(CC(=O)N(C)CC)C1=O` (stereo not shown) [Compound B220], the pest or weed control at 250 g/ha (in the test with Lolium perenne (LOLPE) (setting [3]); in the test with Lolium perenne (LOLPE) (setting [4]); in test [1] (setting [5]); in test [1] (setting [6]); in test [2] (setting [7]); in test [2] (setting [8])) was 100% each time. In addition, the figures for the pest or weed control at 250 g/ha in the test with Avena fatua (AVEFA) (setting [9]) and in the test with Avena fatua (AVEFA) (setting [10]) were 100% and 90%, respectively.

For `Cc1cc(-c2ccc(F)cc2)cc(C)c1C1C(=O)CC(CC(=O)NC(C)C)C1=O` (stereo not shown) [Compound A34, 2-[3-[4-(4-fluorophenyl)-2,6-dimethyl-phenyl]-2,4-dioxo-cyclopentyl]-N-isopropyl-acetamide], the pest or weed control at 250 g/ha (in the test on Lolium perenne (LOLPE) (setting [11]); with Lolium perenne (LOLPE) (setting [12]); in test [1] (setting [13]); in test [1] (setting [14]); in test [2] (setting [15]); in test [2] (setting [16])) was 100% throughout. Moreover, the pest or weed control at 250 g/ha in the test on Avena fatua (AVEFA) (setting [17]) and with Avena fatua (AVEFA) (setting [18]) was 100% in each case.

On to `C=Cc1cc(-c2ncc(F)cn2)cc(C)c1C1C(=O)CC(CC(=O)NC(C)(C)C)C1=O` (stereo not shown) [Compound B404], for which the pest or weed control at 250 g/ha stood at 100% with Lolium perenne (LOLPE) (post-emergence, 360 h, Rate 250 g/ha, post-emergence, visual assessment 15 DAA, 100%=total damage, 0%=no damage, read-out: Post-emergence herbicidal activity (percentage phytotoxicity) LOLPE POST); 80% in the test with Lolium perenne (LOLPE) (pre-emergence, 480 h, Rate 250 g/ha, pre-emergence, visual assessment 20 DAA, 100%=total damage, 0%=no damage, read-out: Pre-emergence herbicidal activity (percentage phytotoxicity) LOLPE PRE); 100% in test [1] (post-emergence, 360 h, Rate 250 g/ha, post-emergence, visual assessment 15 DAA, 100%=total damage, 0%=no damage, read-out: Post-emergence herbicidal activity (percentage phytotoxicity) ECHCG POST); 90% in test [1] (pre-emergence, 480 h, Rate 250 g/ha, pre-emergence, visual assessment 20 DAA, 100%=total damage, 0%=no damage, read-out: Pre-emergence herbicidal activity (percentage phytotoxicity) ECHCG PRE); 90% in test [2] (post-emergence, 360 h, Rate 250 g/ha, post-emergence, visual assessment 15 DAA, 100%=total damage, 0%=no damage, read-out: Post-emergence herbicidal activity (percentage phytotoxicity) ALOMY POST); 80% in test [2] (pre-emergence, 480 h, Rate 250 g/ha, pre-emergence, visual assessment 20 DAA, 100%=total damage, 0%=no damage, read-out: Pre-emergence herbicidal activity (percentage phytotoxicity) ALOMY PRE). Moreover, the pest or weed control at 250 g/ha with Avena fatua (AVEFA) (post-emergence, 360 h, Rate 250 g/ha, post-emergence, visual assessment 15 DAA, 100%=total damage, 0%=no damage, read-out: Post-emergence herbicidal activity (percentage phytotoxicity) AVEFA POST) is 100%; in the test with Avena fatua (AVEFA) (pre-emergence, 480 h, Rate 250 g/ha, pre-emergence, visual assessment 20 DAA, 100%=total damage, 0%=no damage, read-out: Pre-emergence herbicidal activity (percentage phytotoxicity) AVEFA PRE) it was 70%.

Regarding `Cc1cc(-c2ncc(F)cc2F)cc(C)c1C1C(=O)CC(CC(=O)NCc2cccc(Cl)c2)C1=O` (stereo not shown) [Compound B33], the pest or weed control at 250 g/ha with Lolium perenne (LOLPE) (setting [19]) amounted to 90%; in the test on Lolium perenne (LOLPE) (setting [20]) it was 100%; in test [1] (setting [21]) it was 100%; in test [1] (setting [22]), 100%; in test [2] (setting [23]), 90%; in test [2] (setting [24]), 100%. Moreover, the pest or weed control at 250 g/ha with Avena fatua (AVEFA) (setting [25]) and in the test with Avena fatua (AVEFA) (setting [26]) was 100% in each case.

`C/C=C/c1cc(C)c(C2C(=O)CC(CC(=O)NCc3cccc(Cl)c3)C2=O)c(C)c1` (stereo not shown) [Compound B241]: the pest or weed control at 250 g/ha with Lolium perenne (LOLPE) (setting [3]) was 90%; with Lolium perenne (LOLPE) (setting [4]), 80%; in test [1] (setting [5]), 100%; in test [1] (setting [6]), 70%; in test [2] (setting [7]), 80%; in test [2] (setting [8]), 60%. In addition, the pest or weed control at 250 g/ha amounted to 100% with Avena fatua (AVEFA) (setting [9]) and 50% in the test on Avena fatua (AVEFA) (setting [10]).

Turning to `Cc1cc(-c2ccc(C#N)cn2)cc(C)c1C1C(=O)CC(CC(=O)NCc2cccs2)C1=O` (stereo not shown) [Compound A156], the pest or weed control at 250 g/ha in the test with Lolium perenne (LOLPE) (setting [11]) turned out to be 80%; with Lolium perenne (LOLPE) (setting [12]), 80%; in test [1] (setting [13]), 100%; in test [1] (setting [14]), 100%; in test [2] (setting [15]), 70%; in test [2] (setting [16]) it was 60%. For the same compound, the pest or weed control at 250 g/ha was 80% in the test on Avena fatua (AVEFA) (setting [17]) and 70% in the test with Avena fatua (AVEFA) (setting [18]).

`Cc1cc(C)c(C2C(=O)CC(CC(=O)NCc3ccc(C(F)(F)F)cc3)C2=O)c(C)c1` (stereo not shown) [Compound B15]: the pest or weed control at 250 g/ha in the test with Lolium perenne (LOLPE) (setting [19]) is 90%; in the test on Lolium perenne (LOLPE) (setting [20]), 100%; in test [1] (setting [21]) it was 90%; in test [1] (setting [22]), 90%; in test [2] (setting [23]) it was 70%; in test [2] (setting [24]), 80%. The pest or weed control at 250 g/ha in the test on Avena fatua (AVEFA) (setting [25]) stood at 90%; in the test with Avena fatua (AVEFA) (setting [26]), 80%.

Values taken from US10206394B2, “Herbicidal compounds” (Syngenta Participations AG, priority 2014, dated 2019).
